Test: mn = molality of the nth substance listed, in mol/kg
Conditions: 101 kPa, Liquid; for mass density: Vibrating tube method; for speed of sound: Pulse-echo method

O=S(=O)([O-])C(F)(F)F.O=S(=O)([O-])C(F)(F)F.O=S(=O)([O-])C(F)(F)F.[La+3] [lanthanum(III) trifluoromethanesulfonate] + CN(C)C=O
Conditions | mass density, 283.15 K [kg/m3] | mass density, 293.15 K [kg/m3] | mass density, 298.15 K [kg/m3] | mass density, 303.15 K [kg/m3] | mass density, 313.15 K [kg/m3] | mass density, 323.15 K [kg/m3] | mass density, 333.15 K [kg/m3] | speed of sound, 298.15 K [m/s]
m1 = 0.02162 | 966.85 | 957.33 | 952.56 | 947.79 | 938.21 | 928.58 | 918.9 | 1456
m1 = 0.02944 | 970.04 | 960.51 | 955.75 | 950.97 | 941.39 | 931.77 | 922.1 | 1455.5
m1 = 0.03946 | 974.16 | 964.64 | 959.87 | 955.09 | 945.5 | 935.87 | 926.19 | 1455
m1 = 0.04997 | 978.49 | 968.96 | 964.2 | 959.42 | 949.83 | 940.2 | 930.52 | 1454.3
m1 = 0.06066 | – | – | – | – | – | – | – | 1453.6
m1 = 0.0607 | 982.91 | 973.38 | 968.61 | 963.83 | 954.24 | 944.62 | 934.95 | –
m1 = 0.07649 | 989.57 | 980.03 | 975.24 | 970.46 | 960.87 | 951.24 | 941.56 | 1452.5
m1 = 0.09777 | 998.57 | 989.02 | 984.24 | 979.46 | 969.86 | 960.23 | 950.54 | 1450.8
m1 = 0.1172 | 1006.98 | 997.41 | 992.63 | 987.84 | 978.22 | 968.57 | 958.88 | 1449.4
m1 = 0.136 | 1015.16 | 1005.59 | 1000.8 | 996 | 986.37 | 976.72 | 967.03 | 1448
m1 = 0.1591 | 1025.46 | 1015.87 | 1011.07 | 1006.26 | 996.63 | 986.96 | 977.26 | 1446.3
m1 = 0.1792 | 1034.5 | 1024.89 | 1020.09 | 1015.28 | 1005.64 | 995.97 | 986.26 | 1444.9

O=S(=O)([O-])C(F)(F)F.O=S(=O)([O-])C(F)(F)F.O=S(=O)([O-])C(F)(F)F.[Lu+3] [lutetium(III) trifluoromethanesulfonate] + CC(=O)N(C)C
Conditions | mass density, 283.15 K [kg/m3] | mass density, 293.15 K [kg/m3] | mass density, 298.15 K [kg/m3] | mass density, 303.15 K [kg/m3] | mass density, 313.15 K [kg/m3] | mass density, 323.15 K [kg/m3] | mass density, 333.15 K [kg/m3] | speed of sound, 298.15 K [m/s]
m1 = 0.02294 | 960.37 | 951.15 | 946.53 | 941.91 | 932.67 | 923.39 | 914.07 | 1455.7
m1 = 0.03057 | 963.84 | 954.61 | 950 | 945.38 | 936.11 | 926.83 | 917.5 | 1455.4
m1 = 0.0402 | 968.22 | 958.99 | 954.37 | 949.75 | 940.48 | 931.19 | 921.86 | 1455
m1 = 0.05161 | 973.43 | 964.19 | 959.57 | 954.95 | 945.68 | 936.38 | 927.05 | 1454.7
m1 = 0.06304 | 978.74 | 969.5 | 964.89 | 960.24 | 950.96 | 941.65 | 932.31 | 1454.3
m1 = 0.07962 | 986.46 | 977.21 | 972.58 | 967.95 | 958.66 | 949.34 | 939.99 | 1453.7
m1 = 0.1022 | 997.19 | 987.92 | 983.29 | 978.65 | 969.35 | 960.02 | 950.65 | 1452.2
m1 = 0.1222 | 1006.81 | 997.54 | 992.9 | 988.26 | 978.94 | 969.59 | 960.2 | 1451.5
m1 = 0.1412 | 1016.12 | 1006.84 | 1002.2 | 997.55 | 988.22 | 978.86 | 969.47 | 1450.5
m1 = 0.1647 | 1027.86 | 1018.56 | 1013.91 | 1009.26 | 999.92 | 990.55 | 981.13 | 1449
m1 = 0.1843 | 1037.79 | 1028.48 | 1023.83 | 1019.21 | 1009.81 | 1000.43 | 991.01 | 1448.3

O=S(=O)([O-])C(F)(F)F.O=S(=O)([O-])C(F)(F)F.O=S(=O)([O-])C(F)(F)F.[Lu+3] [lutetium(III) trifluoromethanesulfonate] + CN(C)C=O
Conditions | mass density, 283.15 K [kg/m3] | mass density, 293.15 K [kg/m3] | mass density, 298.15 K [kg/m3] | mass density, 303.15 K [kg/m3] | mass density, 313.15 K [kg/m3] | mass density, 323.15 K [kg/m3] | mass density, 333.15 K [kg/m3] | speed of sound, 298.15 K [m/s]
m1 = 0.02151 | 967.66 | 958.14 | 953.37 | 948.59 | 939.01 | 929.39 | 919.7 | 1455.4
m1 = 0.02883 | 970.96 | 961.44 | 956.67 | 951.89 | 942.3 | 932.66 | 922.98 | 1454.7
m1 = 0.03776 | 975 | 965.46 | 960.69 | 955.91 | 946.32 | 936.69 | 927 | 1454
m1 = 0.04886 | 980.05 | 970.51 | 965.73 | 960.95 | 951.35 | 941.71 | 932.02 | 1452.9
m1 = 0.0599 | 985.11 | 975.57 | 970.79 | 966.01 | 956.39 | 946.76 | 937.05 | 1451.8
m1 = 0.07513 | 992.17 | 982.63 | 977.84 | 973.05 | 963.43 | 953.77 | 944.07 | 1450.5
m1 = 0.09644 | 1002.19 | 992.62 | 987.83 | 983.03 | 973.4 | 963.72 | 954 | 1448
m1 = 0.1156 | 1011.35 | 1001.77 | 996.97 | 992.16 | 982.52 | 972.84 | 963.09 | 1445.9
m1 = 0.1337 | 1020.13 | 1010.53 | 1005.72 | 1000.91 | 991.25 | 981.57 | 971.83 | 1444.2
m1 = 0.1557 | 1031 | 1021.38 | 1016.56 | 1011.75 | 1002.08 | 992.37 | 982.6 | 1441.8
m1 = 0.1744 | 1040.3 | 1030.66 | 1025.84 | 1021.02 | 1011.33 | 1001.62 | 991.84 | 1439.7
